Laboratory results as given in patent publication US20230398130A1, “METHODS AND COMPOSITIONS FOR DIFFERENTIATING STEM CELLS” (Massachusetts Institute of Technology, priority 2020, published 2023).
Where a name gives a salt, the structure may show the parent alone.

How the values were obtained:
[1] = tested on: ISC-enriched organoids; experiment: Primary screen, 384-well 2.5-D organoid differentiation (ENR+CD, 6 days): carbachol-induced lysozyme secretion (LYZ.S); type: cell-based, murine; details: for Dose.FC.LYZ.S (log 2 fold change, carbachol-induced lysozyme secretion) / Dose.FC.LYZ.S (log 2 fold change): vs plate median; for Dose.FC.LYZ.S (log 2 fold change) / Dose.FC.LYZ.S / Z.LYZ.S / SSMD.LYZ.S: primary screen; for Dose.FC.LYZ.S: ENR+CD 6 days, FC vs plate median; for Z.LYZ.S: standard z score; for SSMD.LYZ.S: strictly standardized mean difference
Excerpt: (§1) High-throughput screening.

[2] = tested on: ISC-enriched organoids; experiment: Primary screen, 384-well 2.5-D organoid differentiation (ENR+CD, 6 days, Target Selective Inhibitor Library, vs whole-plate median): ATP (CellTiter-Glo 3D, CTG); details: for Dose.FC.CTG (log 2 fold change, ATP) / Dose.FC.CTG (log 2 fold change): vs plate median; for Dose.FC.CTG: ENR+CD 6 days, FC vs plate median; for SSMD.CTG: strictly standardized mean difference
[3] = tested on: ISC-enriched organoids; experiment: Primary screen, 384-well 2.5-D organoid differentiation (ENR+CD, 6 days): basal lysozyme secretion (LYZ.NS); type: cell-based, murine; details: for Dose.FC.LYZ.NS (log 2 fold change, basal lysozyme secretion) / Dose.FC.LYZ.NS (log 2 fold change): vs plate median; for Dose.FC.LYZ.NS: ENR+CD 6 days, FC vs plate median; for Z.LYZ.NS: standard z score of FC; for SSMD.LYZ.NS: strictly standardized mean difference
Excerpt: as §1

[4] = 1st of the 4 dose lines of the treatment (dose not given)
[5] = 2nd of the 4 dose lines of the treatment (dose not given)
[6] = 3rd of the 4 dose lines of the treatment (dose not given)
[7] = 4th of the 4 dose lines of the treatment (dose not given)
[8] = primary screen, 1st of the 4 dose lines of the treatment (dose not given)
[9] = primary screen, 2nd of the 4 dose lines of the treatment (dose not given)
[10] = primary screen, 3rd of the 4 dose lines of the treatment (dose not given)
[11] = primary screen, 4th of the 4 dose lines of the treatment (dose not given)

`C[C@]1(c2nc3c(C(N)=O)cccc3[nH]2)CCCN1` [Veliparib (ABT-888)] was tested, and the “Dose.FC.LYZ.S (log 2 fold change, carbachol-induced lysozyme secretion)” value ([1]; dose 0.08 uM) was 0.105, the “Dose.FC.LYZ.S (log 2 fold change, carbachol-induced lysozyme secretion)” value ([1]; dose 0.40 uM) was 0.179 and the “Dose.FC.LYZ.S (log 2 fold change, carbachol-induced lysozyme secretion)” value ([1]; dose 2.00 uM) was −0.016. The “Dose.FC.LYZ.S (log 2 fold change, carbachol-induced lysozyme secretion)” value ([1]; dose 10.00 uM) was −0.136, the “Z.CTG (standard z score)” value ([2]; dose 0.08 uM) was 0.307 and the “Dose.FC.CTG (log 2 fold change, ATP)” value ([2]; dose 0.08 uM) was 0.128. For the same molecule, the “Z.CTG (standard z score)” value ([2]; dose 0.40 uM) was 0.132, the “Dose.FC.CTG (log 2 fold change, ATP)” value ([2]; dose 0.40 uM) was 0.055 and the “Z.CTG (standard z score)” value ([2]; dose 2.00 uM) was −0.057. The “Dose.FC.CTG (log 2 fold change, ATP)” value ([2]; dose 2.00 uM) was −0.024, the “Z.CTG (standard z score)” value ([2]; dose 10.00 uM) was −0.521 and the “Dose.FC.CTG (log 2 fold change, ATP)” value ([2]; dose 10.00 uM) was −0.218. For the same molecule, the “Z.LYZ.NS (standard z score)” value ([3]; dose 0.08 uM) was 0.649, the “Dose.FC.LYZ.NS (log 2 fold change, basal lysozyme secretion)” value ([3]; dose 0.08 uM) was 0.075 and the “Z.LYZ.NS (standard z score)” value ([3]; dose 0.40 uM) was 1.211. For the same molecule, the “Dose.FC.LYZ.NS (log 2 fold change, basal lysozyme secretion)” value ([3]; dose 0.40 uM) was 0.139, the “Z.LYZ.NS (standard z score)” value ([3]; dose 2.00 uM) was 0.203 and the “Dose.FC.LYZ.NS (log 2 fold change, basal lysozyme secretion)” value ([3]; dose 2.00 uM) was 0.023. For the same molecule, the “Z.LYZ.NS (standard z score)” value ([3]; dose 10.00 uM) was −0.537 and the “Dose.FC.LYZ.NS (log 2 fold change, basal lysozyme secretion)” value ([3]; dose 10.00 uM) was −0.062.
`CO[C@H]1C[C@@H]2CC[C@@H](C)[C@@](O)(O2)C(=O)C(=O)N2CCCC[C@H]2C(=O)O[C@H]([C@H](C)C[C@@H]2CC[C@@H](OC(=O)C(C)(CO)CO)[C@H](OC)C2)CC(=O)[C@H](C)/C=C(\C)[C@@H](O)[C@@H](OC)C(=O)[C@H](C)C[C@H](C)/C=C/C=C/C=C/1C` [Temsirolimus (CCI-779, NSC 683864)] was tested, and the “Dose.FC.LYZ.S (log 2 fold change)” value ([1]; Dose 0.08 uM) was 0.082, the “Dose.FC.LYZ.S (log 2 fold change)” value ([1]; Dose 0.40 uM) was 0.152 and the “Dose.FC.LYZ.S (log 2 fold change)” value ([1]; Dose 2.00 uM) was 0.132. For the same molecule, the “Dose.FC.LYZ.S (log 2 fold change, carbachol-induced lysozyme secretion)” value ([1]; dose 10.00 uM) was 0.153, the “Z.CTG (standard z score)” value ([2]; Dose 0.08 uM, primary screen) was 1.228 and the “Dose.FC.CTG (log 2 fold change)” value ([2]; Dose 0.08 uM, primary screen) was 0.514. The “Z.CTG (standard z score)” value ([2]; Dose 0.40 uM, primary screen) was 1.393, the “Dose.FC.CTG (log 2 fold change)” value ([2]; Dose 0.40 uM, primary screen) was 0.583 and the “Z.CTG (standard z score)” value ([2]; Dose 2.00 uM, primary screen) was 1.382. For the same molecule, the “Dose.FC.CTG (log 2 fold change)” value ([2]; Dose 2.00 uM, primary screen) was 0.578, the “Z.CTG (standard z score)” value ([2]; dose 10.00 uM) was 0.478 and the “Dose.FC.CTG (log 2 fold change, ATP)” value ([2]; dose 10.00 uM) was 0.200. For the same molecule, the “Z.LYZ.NS (standard z score)” value ([3]; Dose 0.08 uM, primary screen) was 0.790, the “Dose.FC.LYZ.NS (log 2 fold change)” value ([3]; Dose 0.08 uM, primary screen) was 0.091 and the “Z.LYZ.NS (standard z score)” value ([3]; Dose 0.40 uM, primary screen) was 0.763. The “Dose.FC.LYZ.NS (log 2 fold change)” value ([3]; Dose 0.40 uM, primary screen) was 0.088, the “Z.LYZ.NS (standard z score)” value ([3]; Dose 2.00 uM, primary screen) was 1.494 and the “Dose.FC.LYZ.NS (log 2 fold change)” value ([3]; Dose 2.00 uM, primary screen) was 0.172. The “Z.LYZ.NS (standard z score)” value ([3]; dose 10.00 uM) was 1.035 and the “Dose.FC.LYZ.NS (log 2 fold change, basal lysozyme secretion)” value ([3]; dose 10.00 uM) was 0.119.
For `CN(C)C(=O)Nc1cccc(-c2ccc(N(C)C)cc2)c1` [Atglistatin], the Dose.FC.LYZ.S ([1]; dose 0.08 uM) was 0.028 log 2 fold change, the Dose.FC.LYZ.S ([1]; dose 0.40 uM) was −0.035 log 2 fold change and the Dose.FC.LYZ.S ([1]; dose 2.00 uM) was 0.026 log 2 fold change. For the same molecule, the Dose.FC.LYZ.S ([1]; dose 10.00 uM) was 0.012 log 2 fold change, the Dose.FC.CTG ([2]; primary screen, dose 0.08 uM) was 0.057 log 2 fold change and the Z.CTG ([2]; primary screen, dose 0.08 uM, standard z score of FC) was 0.137. The Dose.FC.CTG ([2]; primary screen, dose 0.40 uM) was 0.004 log 2 fold change, the Z.CTG ([2]; primary screen, dose 0.40 uM, standard z score of FC) was 0.009 and the Dose.FC.CTG ([2]; primary screen, dose 2.00 uM) was −0.045 log 2 fold change. It also gave a Z.CTG ([2]; primary screen, dose 2.00 uM, standard z score of FC) of −0.108, a Dose.FC.CTG ([2]; primary screen, dose 10.00 uM) of −0.431 log 2 fold change and a Z.CTG ([2]; primary screen, dose 10.00 uM, standard z score of FC) of −1.031. For the same molecule, the Dose.FC.LYZ.NS ([3]; primary screen, dose 0.08 uM) was 0.069 log 2 fold change, the Z.LYZ.NS ([3]; primary screen, dose 0.08 uM) was 0.604 and the Dose.FC.LYZ.NS ([3]; primary screen, dose 0.40 uM) was 0.135 log 2 fold change. The Z.LYZ.NS ([3]; primary screen, dose 0.40 uM) was 1.176, the Dose.FC.LYZ.NS ([3]; primary screen, dose 2.00 uM) was 0.070 log 2 fold change and the Z.LYZ.NS ([3]; primary screen, dose 2.00 uM) was 0.613. It also gave a Dose.FC.LYZ.NS ([3]; primary screen, dose 10.00 uM) of −0.016 log 2 fold change and a Z.LYZ.NS ([3]; primary screen, dose 10.00 uM) of −0.142.
`CCOC(=O)[C@H](CCc1ccccc1)N[C@@H](C)C(=O)N1C(=O)N(C)C[C@H]1C(=O)O` [Imidapril HCl] showed a Z.LYZ.S [1, 4] of −0.274, a Z.LYZ.S [1, 5] of 0.702 and a Z.LYZ.S [1, 6] of −0.226. The Z.LYZ.S [1, 7] was −0.487, the SSMD.LYZ.S [1, 4] was −0.269 and the SSMD.LYZ.S [1, 5] was 0.315. For the same molecule, the SSMD.LYZ.S [1, 6] was −0.262, the SSMD.LYZ.S [1, 7] was −0.404 and the Z.CTG ([2]; Dose 0.08 uM, primary screen, standard z score) was −0.796. It also gave a Z.CTG ([2]; Dose 0.40 uM, primary screen, standard z score) of −0.354, a Z.CTG ([2]; Dose 2.00 uM, primary screen, standard z score) of −0.564 and a Z.CTG ([2]; Dose 10.00 uM, primary screen, standard z score) of −0.543. For the same molecule, the SSMD.CTG [2, 8] was −1.054, the SSMD.CTG [2, 9] was −0.525 and the SSMD.CTG [2, 10] was −0.548. It also gave an SSMD.CTG [2, 11] of −0.699, an SSMD.LYZ.NS [3, 8] of −0.047 and an SSMD.LYZ.NS [3, 9] of 0.004. For the same molecule, the SSMD.LYZ.NS [3, 10] was 0.101 and the SSMD.LYZ.NS [3, 11] was −0.541.
